Assay results published in ChEMBL document CHEMBL1156344, “New bisdesmosidic triterpene saponins from the roots of Pulsatilla chinensis” (J Nat Prod, 2001).
Calls of active or inactive are those of the source. The calls are words filed in the database; no cut-off is given here.

Tested on: HL-60
Assay: Cytotoxicity against human HL60 cells at 10 ug/mL by MTT assay
Assay type: functional, cell-based

SMILES | Activity
C[C@@H]1O[C@@H](O[C@H]2[C@H](O[C@H]3CC[C@@]4(C)[C@@H](CC[C@]5(C)[C@@H]4CC[C@@H]4[C@H]6[C@H](C(C)(C)O)CC[C@]6(C(=O)O[C@@H]6O[C@H](CO[C@@H]7O[C@H](CO)[C@@H](O[C@@H]8O[C@@H](C)[C@H](O)[C@@H](O)[C@H]8O)[C@H](O)[C@H]7O)[C@@H](O)[C@H](O)[C@H]6O)CC[C@]45C)[C@]3(C)CO)OC[C@H](O)[C@@H]2O)[C@H](O)[C@H](O)[C@H]1O | inactive
C=C(C)[C@@H]1CC[C@]2(C(=O)O)CC[C@]3(C)[C@H](CC[C@@H]4[C@@]5(C)CC[C@H](O[C@@H]6OC[C@H](O)[C@H](O)[C@H]6O[C@@H]6O[C@@H](C)[C@H](O)[C@@H](O)[C@H]6O)[C@@](C)(CO)[C@@H]5CC[C@]43C)[C@@H]12 | inactive
C=C(C)[C@@H]1CC[C@]2(C(=O)O[C@@H]3O[C@H](CO[C@@H]4O[C@H](CO)[C@@H](O[C@@H]5O[C@@H](C)[C@H](O)[C@@H](O)[C@H]5O)[C@H](O)[C@H]4O)[C@@H](O)[C@H](O)[C@H]3O)CC[C@]3(C)[C@H](CC[C@@H]4[C@@]5(C)CC[C@H](O[C@@H]6OC[C@H](O)[C@H](O)[C@H]6O[C@@H]6O[C@@H](C)[C@H](O)[C@@H](O)[C@H]6O)C(C)(C)[C@@H]5CC[C@]43C)[C@@H]12 | inactive
C=C(C)[C@@H]1CC[C@]2(C(=O)O[C@@H]3O[C@H](CO[C@@H]4O[C@H](CO)[C@@H](O[C@@H]5O[C@@H](C)[C@H](O)[C@@H](O)[C@H]5O)[C@H](O)[C@H]4O)[C@@H](O)[C@H](O)[C@H]3O)CC[C@]3(C)[C@H](CC[C@@H]4[C@@]5(C)CC[C@H](O[C@@H]6OC[C@H](O)[C@H](O)[C@H]6O)[C@@](C)(CO)[C@@H]5CC[C@]43C)[C@@H]12 | inactive
C=C(C)[C@@H]1CC[C@]2(C(=O)O[C@@H]3O[C@H](CO[C@@H]4O[C@H](CO)[C@@H](O[C@@H]5O[C@@H](C)[C@H](O)[C@@H](O)[C@H]5O)[C@H](O)[C@H]4O)[C@@H](O)[C@H](O)[C@H]3O)CC[C@]3(C)[C@H](CC[C@@H]4[C@@]5(C)CC[C@H](O[C@@H]6OC[C@H](O[C@@H]7O[C@H](CO)[C@@H](O)[C@H](O)[C@H]7O)[C@H](O)[C@H]6O[C@@H]6O[C@@H](C)[C@H](O)[C@@H](O)[C@H]6O)[C@@](C)(CO)[C@@H]5CC[C@]43C)[C@@H]12 | inactive
C=C(C)[C@@H]1CC[C@]2(C(=O)O[C@@H]3O[C@H](CO[C@@H]4O[C@H](CO)[C@@H](O[C@@H]5O[C@@H](C)[C@H](O)[C@@H](O)[C@H]5O)[C@H](O)[C@H]4O)[C@@H](O)[C@H](O)[C@H]3O)CC[C@]3(C)[C@H](CC[C@@H]4[C@@]5(C)CC[C@H](O[C@@H]6OC[C@H](O)[C@H](O)[C@H]6O[C@@H]6O[C@@H](C)[C@H](O)[C@@H](O)[C@H]6O)[C@@](C)(CO)[C@@H]5CC[C@]43C)[C@@H]12 | inactive
C=C(C)[C@@H]1CC[C@]2(C(=O)O[C@@H]3O[C@H](CO[C@@H]4O[C@H](CO)[C@@H](O[C@@H]5O[C@@H](C)[C@H](O)[C@@H](O)[C@H]5O)[C@H](O)[C@H]4O)[C@@H](O)[C@H](O)[C@H]3O)CC[C@]3(C)[C@H](CC[C@@H]4[C@@]5(C)CC[C@H](O[C@@H]6OC[C@H](O[C@@H]7O[C@H](CO)[C@@H](O[C@@H]8O[C@H](CO)[C@@H](O)[C@H](O)[C@H]8O)[C@H](O)[C@H]7O)[C@H](O)[C@H]6O[C@@H]6O[C@@H](C)[C@H](O)[C@@H](O)[C@H]6O)[C@@](C)(CO)[C@@H]5CC[C@]43C)[C@@H]12 | inactive
